According to US12441726B2, “Compounds and uses thereof” (Foghorn Therapeutics Inc., priority 2020, dated 2025):

How the values were obtained:
BRM = BRM (Homo sapiens, UniProt P51531); assay: ATPase catalytic activity assay (ADP-Glo), BRM; conditions: 30 nM BRM, 400 μM ATP; for IC50: BRM ATPase: IC50 (uM)
Experimental: The ATPase catalytic activity of BRM or BRG-1 was measured by an in vitro biochemical assay using ADP-Glo™ (Promega, V9102). The ADP-Glo™ kinase assay is performed in two steps once the reaction is complete. The first step is to deplete any unconsumed ATP in the reaction. The second step is to convert the reaction product ADP to ATP, which will be utilized by the luciferase to generate luminesce and be detected by a luminescence reader, such as Envision.
Then following addition of 5 μL of ADP-Glo™ Reagent provided in the kit, the reaction incubates at room temperature for 40 minutes. Then 10 μL of Kinase Detection Reagent provided in the kit is added to convert ADP to ATP, and the reaction incubates at room temperature for 60 minutes. Finally, luminescence measurement is collected with a plate-reading luminometer, such as Envision.

BRG-1 = BRG-1 (Homo sapiens, UniProt P51532); assay: ATPase catalytic activity assay (ADP-Glo), BRG-1; conditions: for Emax: 1 h, read-out: BRG1 Max % Inhibition, ADP-Glo, 30 nM BRG-1, 400 μM ATP
Sequence of BRG-1 (P51532 whole entry): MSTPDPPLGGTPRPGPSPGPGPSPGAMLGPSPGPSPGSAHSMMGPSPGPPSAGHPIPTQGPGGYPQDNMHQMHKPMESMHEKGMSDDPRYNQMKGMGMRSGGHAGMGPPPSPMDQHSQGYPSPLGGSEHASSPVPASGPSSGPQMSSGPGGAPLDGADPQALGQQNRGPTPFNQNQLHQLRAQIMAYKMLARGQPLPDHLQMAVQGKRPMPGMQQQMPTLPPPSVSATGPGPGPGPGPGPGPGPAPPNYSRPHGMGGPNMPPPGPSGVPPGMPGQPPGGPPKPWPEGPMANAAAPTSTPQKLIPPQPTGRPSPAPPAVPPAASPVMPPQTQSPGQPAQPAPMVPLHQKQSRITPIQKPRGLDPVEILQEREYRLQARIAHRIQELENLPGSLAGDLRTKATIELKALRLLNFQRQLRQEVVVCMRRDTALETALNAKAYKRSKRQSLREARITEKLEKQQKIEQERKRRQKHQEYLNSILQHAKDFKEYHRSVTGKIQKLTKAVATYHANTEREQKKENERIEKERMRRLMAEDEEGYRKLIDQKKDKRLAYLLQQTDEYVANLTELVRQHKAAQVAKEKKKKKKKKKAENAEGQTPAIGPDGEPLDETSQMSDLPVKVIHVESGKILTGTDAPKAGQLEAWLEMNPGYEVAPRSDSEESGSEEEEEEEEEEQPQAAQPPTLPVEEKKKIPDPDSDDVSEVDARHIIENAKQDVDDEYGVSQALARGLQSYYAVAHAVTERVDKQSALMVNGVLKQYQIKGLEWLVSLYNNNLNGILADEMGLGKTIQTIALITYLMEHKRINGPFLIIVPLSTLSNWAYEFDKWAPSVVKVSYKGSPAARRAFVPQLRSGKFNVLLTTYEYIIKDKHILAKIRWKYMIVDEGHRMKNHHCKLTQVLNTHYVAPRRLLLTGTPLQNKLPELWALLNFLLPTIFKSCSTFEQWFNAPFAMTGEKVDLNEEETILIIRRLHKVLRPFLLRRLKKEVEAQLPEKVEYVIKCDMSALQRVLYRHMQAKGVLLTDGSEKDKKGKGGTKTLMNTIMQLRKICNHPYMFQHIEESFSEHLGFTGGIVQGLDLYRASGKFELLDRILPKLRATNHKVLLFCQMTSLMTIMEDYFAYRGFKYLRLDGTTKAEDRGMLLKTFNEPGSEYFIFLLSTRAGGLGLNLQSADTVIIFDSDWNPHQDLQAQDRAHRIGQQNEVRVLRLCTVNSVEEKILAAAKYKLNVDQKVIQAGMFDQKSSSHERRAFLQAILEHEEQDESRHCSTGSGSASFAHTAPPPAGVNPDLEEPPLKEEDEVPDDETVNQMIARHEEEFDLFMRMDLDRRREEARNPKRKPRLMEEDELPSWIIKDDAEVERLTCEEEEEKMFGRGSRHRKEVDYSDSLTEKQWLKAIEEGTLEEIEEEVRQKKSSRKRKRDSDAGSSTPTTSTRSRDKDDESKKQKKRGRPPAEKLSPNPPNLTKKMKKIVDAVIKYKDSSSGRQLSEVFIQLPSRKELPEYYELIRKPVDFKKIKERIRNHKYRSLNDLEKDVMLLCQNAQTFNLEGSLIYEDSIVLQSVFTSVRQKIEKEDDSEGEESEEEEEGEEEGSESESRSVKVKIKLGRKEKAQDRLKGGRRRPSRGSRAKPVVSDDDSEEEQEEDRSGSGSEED

Sequence of BRM (P51531 whole entry): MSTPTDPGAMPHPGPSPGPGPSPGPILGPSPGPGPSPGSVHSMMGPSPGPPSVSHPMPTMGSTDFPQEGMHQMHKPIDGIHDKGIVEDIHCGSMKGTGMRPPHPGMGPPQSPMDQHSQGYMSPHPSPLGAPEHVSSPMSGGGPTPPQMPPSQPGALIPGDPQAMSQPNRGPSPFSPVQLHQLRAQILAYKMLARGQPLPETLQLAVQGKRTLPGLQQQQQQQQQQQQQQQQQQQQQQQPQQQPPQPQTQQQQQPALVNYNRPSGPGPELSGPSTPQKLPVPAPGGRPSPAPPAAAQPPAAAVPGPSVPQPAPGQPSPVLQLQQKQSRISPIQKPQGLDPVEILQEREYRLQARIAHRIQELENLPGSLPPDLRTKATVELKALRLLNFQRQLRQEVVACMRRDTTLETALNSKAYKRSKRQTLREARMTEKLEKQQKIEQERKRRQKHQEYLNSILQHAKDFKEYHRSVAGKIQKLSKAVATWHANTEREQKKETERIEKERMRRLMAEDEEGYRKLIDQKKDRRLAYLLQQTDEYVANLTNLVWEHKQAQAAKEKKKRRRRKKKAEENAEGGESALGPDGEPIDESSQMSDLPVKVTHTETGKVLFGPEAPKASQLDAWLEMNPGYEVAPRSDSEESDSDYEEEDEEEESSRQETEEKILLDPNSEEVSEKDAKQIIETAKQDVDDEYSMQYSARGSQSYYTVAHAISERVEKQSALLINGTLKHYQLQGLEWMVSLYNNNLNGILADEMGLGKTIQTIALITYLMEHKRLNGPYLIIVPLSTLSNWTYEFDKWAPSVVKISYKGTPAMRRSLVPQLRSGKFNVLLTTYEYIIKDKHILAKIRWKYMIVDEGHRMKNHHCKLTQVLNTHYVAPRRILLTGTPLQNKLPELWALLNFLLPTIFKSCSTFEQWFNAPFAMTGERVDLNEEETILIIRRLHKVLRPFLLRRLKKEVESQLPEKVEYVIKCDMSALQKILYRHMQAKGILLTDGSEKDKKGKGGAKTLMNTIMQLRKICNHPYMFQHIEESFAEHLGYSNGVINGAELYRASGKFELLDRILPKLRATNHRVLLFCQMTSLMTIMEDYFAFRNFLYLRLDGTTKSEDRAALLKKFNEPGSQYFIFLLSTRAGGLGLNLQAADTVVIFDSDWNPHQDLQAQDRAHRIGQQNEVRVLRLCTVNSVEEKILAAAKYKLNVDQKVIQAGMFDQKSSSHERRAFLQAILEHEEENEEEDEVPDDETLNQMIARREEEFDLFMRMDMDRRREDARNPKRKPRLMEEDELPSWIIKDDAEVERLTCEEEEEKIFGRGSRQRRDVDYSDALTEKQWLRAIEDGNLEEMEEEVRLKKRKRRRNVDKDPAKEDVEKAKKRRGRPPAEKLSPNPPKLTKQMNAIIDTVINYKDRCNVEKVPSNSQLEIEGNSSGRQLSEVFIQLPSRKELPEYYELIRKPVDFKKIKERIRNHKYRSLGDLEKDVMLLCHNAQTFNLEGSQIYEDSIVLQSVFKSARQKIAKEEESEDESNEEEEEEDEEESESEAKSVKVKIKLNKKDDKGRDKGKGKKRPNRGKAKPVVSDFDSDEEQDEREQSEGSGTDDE

BRM Max % Inhibition (BRM)	IC50 (BRM)	IC50 (BRG-1)	Emax (BRG-1)	SMILES
100%	< 0.1 µM	100 to 500 nM	90%	COc1nn(C2COC2)cc1-c1ccc2cnc(CNC(=O)c3ccc4c(c3)[C@](C)(C#N)COC4)cc2n1 [Compound 236]
100%	< 0.1 µM	100 to 500 nM	92%	O=C(NCc1cc2nc(-c3cncc(C4CC4)n3)ccc2cn1)c1cc(F)c2c(c1)[C@](F)(C(F)F)COC2 [Compound 237]
100%	< 0.1 µM	< 100 nM	96%	CN(C)c1cccc(-c2ccc3nnc(CNC(=O)c4ccc5c(c4)[C@](C)(F)COC5)cc3n2)n1 [Compound 238]
101%	< 0.1 µM	100 to 500 nM	93%	C[C@@]1(F)COCc2ccc(C(=O)NCc3cc4nc(-c5cccc(N6CCCC6=O)n5)ccc4nn3)cc21 [Compound 239]
101%	< 0.1 µM	100 to 500 nM	89%	C[C@@]1(F)COCc2ccc(C(=O)NCc3cc4nc(-c5cccc(C6CC6)n5)ccc4nn3)cc21 [Compound 240]
97%	0.1 to 0.5 µM	500 to 1000 nM	63%	O=C(NCc1cc2nc(-c3cncc(C4CC4)n3)ccc2cn1)c1cnc2c(c1)[C@](F)(C(F)F)CCO2 [Compound 241]
94%	0.1 to 0.5 µM	500 to 1000 nM	51%	C[C@@]1(C#N)COCc2ccc(C(=O)NCc3cc4nc(-c5ccccc5)sc4nn3)cc21 [Compound 242]
81%	0.1 to 0.5 µM	> 1000 nM	9%	O=C(NCc1cc2nc(-c3cncc(C4CC4)n3)ccc2cn1)c1cnc2c(c1)[C@@](F)(C(F)F)CCO2 [Compound 243]
88%	0.1 to 0.5 µM	> 1000 nM	25%	C[C@@]1(F)COCc2ncc(C(=O)NCc3cc4nc(-c5ccnc(N6CCC6)n5)sc4cn3)cc21 [Compound 244]
96%	0.1 to 0.5 µM	500 to 1000 nM	75%	C[C@@]1(F)COCc2ccc(C(=O)NCc3cc4nc(-c5ccnc(N6CCC6)n5)sc4cn3)cc21 [Compound 245]
88%	0.1 to 0.5 µM	> 1000 nM	23%	O=C(NCc1cc2nc(-c3cncc(C4CC4)n3)ccc2cn1)c1cnc2c(c1)C(O)(C(F)F)COC2 (stereo not shown) [Compound 246]
93%	0.1 to 0.5 µM	> 1000 nM	65%	C[C@@]1(C#N)COCc2ccc(C(=O)NCc3cc4c(nn3)CCN(c3cncc(N5CCC5)n3)C4)cc21 [Compound 247]
98%	< 0.1 µM	100 to 500 nM	100%	CN(C)c1cccc(-c2ccc3cnc(CNC(=O)c4ccc5c(c4)[C@](C)(F)COC5)cc3n2)n1 [Compound 248]
97%	0.1 to 0.5 µM	500 to 1000 nM	71%	C[C@@]1(F)COCc2ccc(C(=O)NCc3cc4nc(-c5cccc(C6(O)CCOC6)n5)ccc4cn3)cc21 (stereo partly shown) [Compound 249]
87%	0.1 to 0.5 µM	> 1000 nM	25%	COc1ccccc1N1CCc2cnc(CNC(=O)c3ccc4c(c3)[C@](C)(C#N)COC4)cc2C1 [Compound 250]
100%	< 0.1 µM	100 to 500 nM	91%	COc1nn(C)cc1-c1ccc2cnc(CNC(=O)c3ccc4c(c3)[C@](C)(F)COC4)cc2c1 [Compound 251]
87%	0.1 to 0.5 µM	> 1000 nM	33%	C[C@]1(F)CCCc2ncc(C(=O)NCc3cc4nc(-c5cncc(C6CC6)n5)ccc4cn3)cc21 [Compound 252]
92%	0.1 to 0.5 µM	500 to 1000 nM	57%	C[C@]1(C#N)CCOc2ncc(C(=O)NCc3cc4nc(-c5cncc(C6CC6)n5)ccc4cn3)cc21 [Compound 253]
99%	< 0.1 µM	500 to 1000 nM	77%	C[C@@]1(F)COCc2ccc(C(=O)NCc3cc4nc(-c5cccc(C(F)F)n5)ccc4nn3)cc21 [Compound 254]
100%	< 0.1 µM	100 to 500 nM	90%	C[C@@]1(F)COCc2ccc(C(=O)NCc3cc4nc(-c5cncc(C6CC6)n5)ccc4nn3)cc21 [Compound 255]
98%	< 0.1 µM	500 to 1000 nM	76%	COc1ccccc1-c1cnc2cnc(CNC(=O)c3ccc4c(c3)[C@](C)(F)COC4)cc2n1 [Compound 256]
92%	0.1 to 0.5 µM	500 to 1000 nM	65%	C[C@@]1(F)COCc2ccc(C(=O)NCc3cc4cc(-c5ccnn(C6CC6)c5=O)ccc4cn3)cc21 [Compound 257]

BRM Max % Inhibition (BRM)	IC50 (BRM)	IC50 (BRG-1)	Emax (BRG-1)	SMILES
96%	0.1 to 0.5 µM	100 to 500 nM	75%	C[C@@]1(C#N)COCc2ccc(C(=O)NCc3cc4c(cn3)CCN(c3ccnc(N5CCC5)c3F)C4)cc21 [Compound 258]
99%	< 0.1 µM	100 to 500 nM	88%	C[C@@]1(F)COCc2ccc(C(=O)NCc3cc4nc(-c5ccnc(N6CCOCC6)n5)ccc4cn3)cc21 [Compound 259]
83%	0.1 to 0.5 µM	> 1000 nM	42%	CNC(=O)c1ccc(-c2ccc3cnc(CNC(=O)c4ccc5c(c4)[C@](C)(F)COC5)cc3n2)cn1 [Compound 260]
94%	0.1 to 0.5 µM	500 to 1000 nM	61%	COc1nn(C)cc1-c1cnc2cnc(CNC(=O)c3ccc4c(c3)[C@](C)(C#N)COC4)cc2c1 [Compound 261]
102%	< 0.1 µM	< 100 nM	99%	C[C@@]1(C#N)COCc2ccc(C(=O)NCc3cc4cc(-c5cccc(C6(O)CC6)n5)ccc4cn3)cc21 [Compound 262]
98%	0.1 to 0.5 µM	500 to 1000 nM	72%	Cc1cc(-c2ccc3cnc(CNC(=O)c4ccc5c(c4)[C@](C)(C#N)COC5)cc3n2)n[nH]1 [Compound 264]
104%	< 0.1 µM	< 100 nM	99%	CO[C@H]1CCN(c2cncc(-c3ccc4cnc(CNC(=O)c5ccc6c(c5)[C@](C)(F)COC6)cc4c3)n2)C1 [Compound 265]
103%	< 0.1 µM	100 to 500 nM	96%	CO[C@@H]1CCN(c2cncc(-c3ccc4cnc(CNC(=O)c5ccc6c(c5)[C@](C)(F)COC6)cc4c3)n2)C1 [Compound 266]
103%	< 0.1 µM	100 to 500 nM	88%	CN1CCN(c2nccc(-c3ccc4cnc(CNC(=O)c5ccc6c(c5)[C@](C)(F)COC6)cc4n3)n2)CC1=O [Compound 267]
97%	0.1 to 0.5 µM	500 to 1000 nM	67%	C[C@@]1(F)COCc2ccc(C(=O)NCc3cc4nc(-c5ccnn(C6CC6)c5=O)ccc4cn3)cc21 [Compound 268]
104%	< 0.1 µM	100 to 500 nM	97%	C[C@@]1(F)COCc2c(F)cc(C(=O)NCc3cc4cc(-c5cncc(N6CCC6)n5)ccc4cn3)cc21 [Compound 269]
104%	< 0.1 µM	< 100 nM	98%	C[C@@]1(C#N)COCc2c(F)cc(C(=O)NCc3cc4cc(-c5cncc(N6CCC6)n5)ccc4cn3)cc21 [Compound 270]
104%	< 0.1 µM	100 to 500 nM	95%	C[C@@]1(F)COCc2ccc(C(=O)NCc3cc4nc(-c5cccc(C6(O)CC6)n5)ccc4cn3)cc21 [Compound 271]
104%	< 0.1 µM	100 to 500 nM	95%	C[C@@]1(C#N)COCc2ccc(C(=O)NCc3cc4cc(-c5ccnc(N6CCC6)c5F)ccc4cn3)cc21 [Compound 272]
98%	0.1 to 0.5 µM	500 to 1000 nM	64%	C[C@@]1(F)COCc2ccc(C(=O)NCc3cc4nc(-c5cccc(N=S(C)(C)=O)n5)ccc4cn3)cc21 [Compound 273]
93%	0.1 to 0.5 µM	500 to 1000 nM	45%	COc1nn(C)cc1-c1nc2cc(CNC(=O)c3ccc4c(c3)[C@](C)(C#N)COC4)ncc2s1 [Compound 274]
96%	< 0.1 µM	500 to 1000 nM	77%	COc1nn(C)cc1-c1ccc2nnc(CNC(=O)c3ccc4c(c3)[C@](C)(F)COC4)cc2n1 [Compound 275]
98%	< 0.1 µM	100 to 500 nM	95%	C[C@@]1(F)COCc2ccc(C(=O)NCc3cc4nc(-c5cncc(N6CCC6)n5)ccc4nn3)cc21 [Compound 276]
96%	0.1 to 0.5 µM	500 to 1000 nM	69%	C[C@@]1(F)COCc2ccc(C(=O)NCc3cc4nc(-c5ccccc5)ccc4nn3)cc21 [Compound 277]
101%	< 0.1 µM	100 to 500 nM	96%	COCCOCCC(=O)N1CCN(c2cccc(-c3ccc4cnc(CNC(=O)c5ccc6c(c5)[C@](C)(C#N)COC6)cc4n3)n2)CC1 [Compound 278]
83%	0.1 to 0.5 µM	500 to 1000 nM	67%	C[C@@]1(F)COCc2ccc(C(=O)NCc3cc4nc(N5CCN(C6CC6)S5(=O)=O)ccc4cn3)cc21 [Compound 279]
